{"source": "patent US20210121518A1", "about": "“HER2-TARGETED PEPTIDOMIMETICS GRAFTED ONTO MULTICYCLIC PEPTIDE SCAFFOLDS AND METHODS AND USES” (Board of Supervisors for the University of Louisiana System, priority 2018, published 2021)", "molecules": {"B1": {"name": "SFTI-G5 (peptide)", "peptide": "cyclo(C[βAla(3S-(1-naphthyl))]RIPPR[βAla(3S-(1-naphthyl))]CFPDDF)", "modifications": "disulfide 1-9", "notes": "also called grafted peptide; grafted SFTI peptide"}}, "key": {"[1]": {"tested_on": "trypsin", "assay": "Stability in trypsin (HPLC)", "assay_type": "in vitro ADME", "conditions": "pH 7.4, 37° C, 24 hours", "procedure": "The trypsin inhibition assay was performed with a modified Erlanger's method. […] Samples at different incubation times were analyzed by HPLC."}, "[2]": {"assay": "Stability in human serum (in vitro, HPLC)", "assay_type": "in vitro ADME", "text": "At different time points, aliquots of sample were taken and subjected to extraction of compound using cold acetonitrile. Samples were freeze dried and quantified by HPLC method. […] Nearly 60% of sample is intact peptide."}, "[3]": {"tested_on": "A549 Red-FLuc NSCLC cells", "assay": "A549 Red-FLuc lung cancer model in athymic nude mice", "assay_type": "in vivo, mice (Foxn1-nude)", "conditions": "6 mg/kg IV twice a week", "procedure": "A549 cells with luciferase were injected to induce lung cancer in mice (Foxn1-nude). One week after injection of cells, mice were monitored for lung cancer development using luciferin imaging. Peptide was administered via IV twice a week after 2 weeks of cell injections. Representative images: In the control group (row 1) lung cancer tumor growth increased in 5 weeks.\nFIG. 17 is a chart showing relative luminescence intensity (total photon flux/sec) plotted for 3 animals and a control.\nFIG. 18A is a plot of relative luminescence intensity (total photon flux/sec) plotted for 4 animals and controls from the lung cancer study, *p<0.05, and FIG. 18B is a plot displaying bodyweight change of mice during the study.\nAthymic nude mice (Foxn1-nude, 6-7 weeks old) were purchased from Harlan laboratories. Mice were acclimatized for one week in the vivarium. 4.5×10^6 A549 Red-FLuc NSCLC cells in 150 μL PBS were injected into each mouse via tail vein (IV). Total of four mice were injected with cells. Mice were monitored for 2 weeks. After 1 week, mice were injected with luciferin (200 μL in PBS, IP injection) and imaged under anesthesia using IVIS (Perkin Elmer) instrument. Bioluminescence was measured from each animal. One animal was used as a control. Peptide treatment started after 2 weeks from injection of cells and peptide was prepared in PBS and administered via i.v. with a dose of 6 mg/kg in 100 μL twice a week. Animals were imaged once a week to monitor the progression of lung cancer. Images were quantified using Living Image Software (Perkin Elmer). Bioluminescence signal for each mouse was expressed as total flux of photons/sec. Region of interest tool was used to measure the total photon flux/sec. A graph of bioluminescence for each mouse was plotted with respect to time (each week). After five weeks mice were terminated, and tumor sections and lungs were removed by surgical procedure. Tumor sections were fixed, embedded in […], and cut into 5 μm slices. […] Images were viewed under a fluorescence microscope (Olympus BX63 microscope) at 40× magnification. […]"}, "[4]": {"tested_on": "Calu-3 lung cancer cell lines that overexpresses HER2", "assay": "Synergy with TKI (isobologram) in Calu-3", "assay_type": "cell-based"}, "[5]": {"conditions": "for appearance in water (turbidity): 0.5 mg in 1 mL water, compared to blank", "procedure": "0.5 mg of each compound was added to water in 1 mL. […] If a compound is highly soluble in water, it may not pass through intestinal barrier. Compound should be slightly lipophilic to pass through intestinal barrier."}, "[6]": {"assay": "Thermal stability by MALDI-TOF mass spectrometry", "assay_type": "physicochemical", "conditions": "25° C., 50° C., 80° C., MALDI-TOF-MS", "procedure": "FIGS. 12A-12C are three charts showing thermal stability of the disclosed H2TPFGGoCSs using mass spectrometry.\n(§1) However, CD spectra of peptides provide the information about the overall average conformation of the peptide in solution. To verify that the peptide was stable even at high temperature, the samples of peptide that were heated to 80 C was analyzed by mass spectrometry. […] The CD spectra of compound 18 was also verified using mass spectrometry analysis (FIG. 22)."}, "[7]": {"assay": "Thermal stability by CD spectroscopy", "assay_type": "physicochemical", "conditions": "temperature changed from 25 to 80° C. (85 C)", "procedure": "Overall conformation of the peptide remained the same at all temperatures studied.\nas §1"}, "[8]": {"tested_on": "HER2 overexpressing BT-474 breast cancer cell lines", "conditions": "read-out: antiproliferative activity IC50", "procedure": "(§2) X=Anapa, amino naphthyl propionic acid, specifically, 3-amino 3(1-napthyl) propionic acid. Single letter amino acid code was used for peptide sequence. Small letters refer to D amino acids and capital letters refer to L amino acids. Chirality of Anapa was indicated with R and S configuration in italics. Antiproliferative activity of peptides in cancer cell lines are given as IC50 μM. Disulfide bond between the cysteines is shown in underline."}, "[9]": {"tested_on": "MCF-7 cell lines that do not overexpress the HER2 protein", "procedure": "as §2"}, "[10]": {"tested_on": "HER2-overexpressing lung cancer Calu-3 cell lines", "conditions": "read-out: antiproliferative activity IC50", "procedure": "as §2"}, "[11]": {"tested_on": "normal breast epithelial cell line MCF-10A", "conditions": "for IC50: read-out: antiproliferative activity IC50, MCF-10A", "procedure": "as §2\nDesign of grafted peptides: Peptidomimetics were designed to bind to HER2 protein domain IV and inhibit PPI of HER2:HER3 and EGFR:HER2."}, "[12]": {"tested_on": "BT-474 cell lines that overexpress HER2", "assay": "Synergy with TKI (isobologram) in BT-474", "assay_type": "cell-based"}, "[13]": {"tested_on": "phosphorylation of HER2 kinase", "assay": "Western blot of HER2 phosphorylation in A549 cells", "assay_type": "cell-based", "conditions": "1 μM, incubation 40 h", "procedure": "Lapatinib (2 μM) was used as positive control. Incubation 40 h. *p<0.05 **P<0.01.\nLapatinib, a known inhibitor of HER2, was used as a positive control."}, "[14]": {"tested_on": "EGFR mutated NSCLC cell line NCI-H1975", "assay": "Synergy with TKI (isobologram) in NCI-H1975", "assay_type": "cell-based"}, "[15]": {"tested_on": "NCI-H1975 (EGFR L858R/T790M double mutation)", "conditions": "read-out: antiproliferative activity IC50", "procedure": "as §2\nThe inventor therefor designed compounds to bind to the extracellular domain and inhibit the downstream signaling. NCI-H1975 is a cell line that harbors the EGFR L858R/T790M double mutation."}, "[16]": {"target": "HER2 protein extracellular domain (ECD) (Homo sapiens, UniProt P04626)", "assay": "SPR binding to HER2 extracellular domain", "conditions": "SPR sensorgram", "text": "Surface plasmon resonance (SPR) analysis of binding of grafted peptide with HER2 ECD protein at different concentrations. […] SPR analysis of binding of grafted peptide with HER2 ECD domain IV protein at different concentrations.\nTo evaluate the binding of the grafted peptide to HER2 protein ECD, surface plasmon resonance (SPR) analysis was used."}, "[17]": {"target": "T1, human serum albumin (HSA) (human, UniProt P02768 25-609)", "T1 construct": "also called HSA protein", "T1 sequence (P02768 25-609 limits assumed)": "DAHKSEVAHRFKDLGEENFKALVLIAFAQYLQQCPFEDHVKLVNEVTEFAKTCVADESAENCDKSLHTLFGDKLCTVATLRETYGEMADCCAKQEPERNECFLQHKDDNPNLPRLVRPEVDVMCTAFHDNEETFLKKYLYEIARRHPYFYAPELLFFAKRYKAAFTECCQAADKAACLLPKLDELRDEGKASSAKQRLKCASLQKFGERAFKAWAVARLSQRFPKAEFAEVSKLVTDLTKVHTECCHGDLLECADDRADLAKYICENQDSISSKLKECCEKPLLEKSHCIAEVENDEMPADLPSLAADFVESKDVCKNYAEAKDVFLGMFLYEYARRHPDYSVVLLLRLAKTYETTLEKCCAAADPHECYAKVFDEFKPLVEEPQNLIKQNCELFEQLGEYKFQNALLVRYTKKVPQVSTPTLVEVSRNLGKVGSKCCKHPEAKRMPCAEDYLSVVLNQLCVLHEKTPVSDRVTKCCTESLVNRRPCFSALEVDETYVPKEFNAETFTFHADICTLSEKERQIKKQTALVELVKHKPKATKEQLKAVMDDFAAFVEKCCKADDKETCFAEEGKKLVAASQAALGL", "assay": "SPR"}}, "note": "Several values for one entry are separate records, joined by “and”; a condition that tells them apart may be missing. Equal values may be shown once. Entries after “also recorded” stand apart in the source; their conditions may differ. Numbered stars: 1 amine (or outer) side, 2 acyl side, 3 side chain; on linkers, the order of the positions; unused ones are H or OH. Bridge positions count the residues as written; N and C are the ends. Square brackets hold non-standard residues; d marks the D form. Peptide text beside a SMILES is read from it. βAla(3R-(1-naphthyl)) = O=C(C[C@@H](N[*:1])c1cccc2ccccc12)[*:2]; βAla(3S-(1-naphthyl)) = O=C(C[C@H](N[*:1])c1cccc2ccccc12)[*:2]", "data": [{"molecule": "CC[C@H](C)[C@@H]1NC(=O)[C@H](CCCNC(=N)N)NC(=O)C[C@@H](c2cccc3ccccc23)NC(=O)[C@@H]2CSSC[C@H](NC(=O)C[C@@H](c3cccc4ccccc34)NC(=O)[C@H](CCCNC(=N)N)NC(=O)[C@@H]3CCCN3C(=O)[C@@H]3CCCN3C1=O)C(=O)N[C@@H](Cc1ccccc1)C(=O)N1CCC[C@H]1C(=O)N[C@@H](CC(=O)O)C(=O)N[C@@H](CC(=O)O)C(=O)N[C@@H](Cc1ccccc1)C(=O)N2", "note": "[SFTI-G5, Cyclo(C(S-X)RIPPR(S-X)CFPDDF)]", "values": [{"measurement": "stability in trypsin", "setting": "[1]", "value": "stable in trypsin assay"}, {"measurement": "time of stability in human serum", "setting": "[2]; 2 mg/mL in human serum, HPLC", "value": "up to 50 h"}, {"measurement": "remaining at 50 h, 2 mg/mL", "setting": "[2]; human, human serum, up to 50 h, read-out: intact peptide in human serum", "value": "~60", "unit": "%"}, {"measurement": "histological analysis of lung tissue", "setting": "[3]", "value": "reduced pathological features associated with tumor development"}, {"measurement": "tumor growth (bioluminescence, total photon flux/sec)", "setting": "[3]; weeks 4 and 5, vs control", "value": "reduced growth of tumors; also recorded: tumor growth was reduced compared to the control group; also recorded: reduction in the luminescence intensity of tumors"}, {"measurement": "body weight change of mice", "setting": "[3]; during the study", "value": "No changes in body weight were observed"}, {"measurement": "synergistic effect with erlotinib (isobologram)", "setting": "[4]; Calu-3, combination with erlotinib", "value": "synergistic"}, {"measurement": "synergistic effect with lapatinib (isobologram)", "setting": "[4]; Calu-3, combination with lapatinib", "value": "synergistic"}, {"measurement": "appearance in water (turbidity)", "setting": "[5]", "value": "slightly turbid"}, {"measurement": "thermal stability, mass spectrometry", "setting": "[6]", "value": "stable up to 80 C; also recorded: thermally stable"}, {"measurement": "thermal stability, CD spectra", "setting": "[7]", "value": "stable from 25 C to 85 C; also recorded: more stable than compound 18; also recorded: no significance difference in the CD spectra"}, {"measurement": "IC50", "setting": "[8]", "value": 0.28, "unit": "µM"}, {"measurement": "antiproliferative activity, times less against HER2-ve cell lines", "setting": "[9]; as printed: less than its activity against HER2-ve cell lines", "value": "~300", "unit": "times"}, {"measurement": "IC50", "setting": "[9]; read-out: antiproliferative activity IC50, MCF-7", "value": 25, "unit": "µM"}, {"measurement": "IC50", "setting": "[10]", "value": 0.073, "unit": "µM"}, {"measurement": "antiproliferative activity, times less in noncancerous breast cell lines compared to Calu-3", "setting": "[11]; MCF-10A vs Calu-3", "value": "more than 500 times"}, {"measurement": "IC50", "setting": "[11]", "value": 40, "unit": "µM"}, {"measurement": "synergistic effect with erlotinib (isobologram)", "setting": "[12]; BT-474, combination with erlotinib", "value": "synergistic"}, {"measurement": "synergistic effect with lapatinib (isobologram)", "setting": "[12]; BT-474, combination with lapatinib", "value": "synergistic"}, {"measurement": "inhibition of HER2 phosphorylation", "setting": "[13]", "value": "inhibits phosphorylation of HER2 kinase; also recorded: reduces HER2 phosphorylation"}, {"measurement": "synergistic effect with erlotinib (isobologram)", "setting": "[14]; NCI-H1975, combination with erlotinib", "value": "synergistic"}, {"measurement": "synergistic effect with lapatinib (isobologram)", "setting": "[14]; NCI-H1975, combination with lapatinib", "value": "synergistic"}, {"measurement": "IC50", "setting": "[15]", "value": 4.22, "unit": "µM"}]}, {"molecule": "N=C(N)NCCC[C@@H]1NC(=O)[C@H]2CCCN2C(=O)[C@@H]2CCCN2C(=O)[C@H](CCCNC(=N)N)NC(=O)C[C@H](c2cccc3ccccc23)NC(=O)[C@H](Cc2ccccc2)NC(=O)[C@H](CC(=O)O)NC(=O)[C@H](CC(=O)O)NC(=O)[C@H](Cc2ccccc2)NC(=O)C[C@H](c2cccc3ccccc23)NC1=O", "note": "[compound 18, reference compound] (cyclo(P[dP]R[βAla(3R-(1-naphthyl))]FDDF[βAla(3R-(1-naphthyl))]R))", "values": [{"measurement": "solubility", "setting": "[5]", "value": "< 500", "unit": "µg/mL"}, {"measurement": "IC50", "setting": "[11]", "value": 40, "unit": "µM"}]}, {"molecule": "Cyclo(C(S-X)RIHyPHyPR(S-X)CFPDDF) [SFTI-G7]", "values": [{"measurement": "appearance in water (turbidity)", "setting": "[5]", "value": "slightly turbid"}]}, {"molecule": "H2N—K(3-aminobiphenyl propionic acid)F—OH [control peptide]", "values": [{"measurement": "binding to HER2 protein (in words)", "setting": "[16]", "value": "does not bind to HER2 protein; also recorded: no binding was observed"}]}, {"molecule": "B1", "values": [{"measurement": "Kd", "setting": "[17]", "value": "56.9 µM and 56 µM"}]}]}
